Results published in US12390467B2, “Necroptosis inducers or autophagy inhibitors or a combination thereof” (The University of Toledo, priority 2018, dated 2025).

Legend:
Type in all cases: cell-based
[1] = test system: EMT and Wnt/β-catenin signaling proteins in BT-20 cells; test: Western blot, EMT and Wnt/β-catenin proteins, BT-20
Protocol: (§1) The TNBC cells were seeded in a culture flask and incubated for 24 h. The cells were then incubated with different concentrations of the lead compounds and re-incubated for an additional 12 or 24 h. […] The bicinchoninic acid (BCA) was used to determine protein concentration in the cell extracts (G-BIOSCIENCES, St. Louis, MO, USA). […] The membrane was blocked using 5% milk in Tris-buffered Tween 20 saline for 30 minutes. The membrane was then incubated overnight with primary antibodies against Bak, Bax, Bcl-2, caspase9, caspase 3, caspase 7, PARP, cytochrome c, N-cadherin, E-cadherin, c-Myc, dishevelled segment polarity protein 3 (DVL3), dishevelled segment polarity protein 2 (DVL2), Vimentin, mitogen-activated protein kinase kinase (MAPKK also known as MEK1/2), β-catenin, low-density lipoprotein receptor-related protein 6 (LRP6), receptor-interacting protein kinase (RIP), phosphorylated RIP (p-RIP), mixed lineage kinase domain like pseudokinase(MLKL), Caspase 8, light chain 3 (LC3), lysosomal-associated membrane protein 1 (LAMP1), unc-51 like autophagy activating kinase 1 (ULK1), ras associated protein 7 (Rab7), ras associated protein 5 (Rab5), Beclin 1, mechanistic target of rapamycin (mTOR), tumor necrosis factor alpha (TNF-α), tumor necrosis factor receptor 1 (TNFR1), tumor necrosis factor receptor 2 (TNFR2), Fas-associated protein with death domain (FADD), Fas ligand (Fas), TNF-related apoptosis-inducing ligand (TRAIL), death receptor 5 (DR5), Tumor necrosis factor receptor type 1-associated DEATH domain (TRADD), receptor-interacting protein kinase 3 (RIP3), β-actin or GAPDH in 1:1000 dilution in 5% milk or 5% BSA at 4° C. Horseradish peroxidase-labeled (HRP) anti-rabbit or anti-mouse secondary antibodies (1:5,000 dilution) were added and incubated the next day for an additional 1 h. A ChemiDoc™ MP System imaging system from Bio-Rad (Hercules, CA, USA) was used for blots reading. Blots were used to obtain the protein bands, followed by quantification of the bands using image J software (NIH, Bethesda, MD, USA). All of the data were expressed as the ratio of β-actin or GAPDH.

[2] = test system: β-catenin in MDA-MB468; test: Western blot, β-catenin, MDA-MB468
Protocol: The TNBC cells were seeded in a culture flask and incubated for 24 h. The cells were then incubated with different concentrations of the lead compounds and re-incubated for an additional 12 or 24 h. […] The bicinchoninic acid (BCA) was used to determine protein concentration in the cell extracts (G-BIOSCIENCES, St. Louis, MO, USA). […] The membrane was blocked using 5% milk in Tris-buffered Tween 20 saline for 30 minutes. […] A ChemiDoc™ MP System imaging system from Bio-Rad (Hercules, CA, USA) was used for blots reading. Blots were used to obtain the protein bands, followed by quantification of the bands using image J software (NIH, Bethesda, MD, USA). All of the data were expressed as the ratio of β-actin or GAPDH.

[3] = test system: ABCG2 transporter in H460/MX20, S1M180 and HEK293/R2 cells; test: Western blot, ABCG2 transporter expression; conditions: concentration dependent
Excerpt: FIG. 25: TPH104 reverses multidrug resistance by downregulating the expression of ABCG2 transporter in a concentration dependent fashion in drug resistant small cell lung cancer cells (H460/MX20), colon cancer cells (S1M180) and ABCG2-transfected cells (HEK293/R2). The bar graph represents the quantified values of the ratio of ABCG2/β-actin. The data represent mean±SEM of three independent western blots. *p<0.05, **p<0.01 compared to control.

[4] = test system: Bak, Bax, Bcl-2, caspases, PARP, cytochrome c in BT-20 cells; test: Western blot, apoptotic proteins
Protocol: as §1

[5] = test system: TRAIL, DR5, TRADD, RIP3, TNF-α, TNFR1, FADD, Fas in BT-20 TNBC cells; test: Western blot, TRAIL and TNF pathway proteins
Protocol: as §1, with “Horseradish peroxidase-labeled (HRP) anti-rabbit or anti-mouse secondary antibodies (1:5,000 dilution) were added and incubated the next day for an additional 1 h.” left out

[6] = test system: MDA-MB468, BT-20, and MDA-MB231; test: Trans-well migration assay; conditions: 1 μM or 10 μM, 24 h
Protocol: This assay was used to assess the migration and invasiveness of TNBC cells. In this assay, 24 well-plates with 24 well inserts of 8 μm pore size, (Corning, Cambridge, MA, USA), were used. The inserts were pre-coated with growth-factor reduced matrigel (1:40) and added to each well, forming two chambers (upper and lower). Briefly, cells were seeded at a density of 10,000 cells/well in the upper chamber of the inserts. The lower chamber was filled with cell-free DMEM medium supplemented with 10% FBS and 1% P/S. The next day, cells were incubated with 0.1, 1, or 10 μM of TPH104 or vehicle for 24 h to allow the cells to migrate through the porous membrane into the lower chamber. Following incubation, cotton swabs were used to wipe away the non-migrated, stationary cells in the upper chamber. The migrated cells were fixed with 100% methanol and stained with 0.1% crystal violet dye. The migrated cells were then viewed, pictured and counted using an EVOS-FLC microscope as previously reported.

[7] = test system: BT-20 cells; test: Hoechst 33258 assay and live cell morphology, BT-20
Protocol: FIGS. 8A-8B: Representative images of morphological changes in BT-20 TNBC cells incubated with 0, 1, or 3 μM of TPH104 (FIG. 8A). The images were taken using an incuCyte live cell imaging instrument.
To detect DNA fragmentation following apoptotic cell death, the Hoechst 33258 assay was performed. Briefly, TNBC cells were seeded in a 6-well plate at a density of 10,000 cells/well over 18-mm cover slips and incubated for 24 h. Following incubation, TPH104 (1, 2, or 5 μM), or vehicle were added for an additional 12 h. Subsequently, Hoechst 33258 (Sigma Aldrich, USA) was added to the cells at a concentration of 0.5 mg/mL and incubated for 30 minutes at 37° C. The cells were then washed 3× with phosphate buffered saline (PBS). Subsequently, the cover slips were mounted on a microscope glass/slide and allowed to dry for at least 2 h. Stained cells from each cover slip were captured from randomly selected fields under a fluorescent microscope (EVOS-FLC cell imaging system, Thermofisher scientific) to qualitatively determine the proportion of viable and apoptotic cells based on their relative fluorescence and nuclear fragmentation as previously described.

SMILES: COc1ccc(O)c(/C=N/Nc2ncnc3scc(-c4ccc(C)cc4)c23)c1 [TPH104]
- expression levels of DVL3, DVL2, vimentin, and MEK1/2 ([1]; 2 μM and 5 μM): significantly decreased
- expression of N-cadherin ([1]; 2 μM and 5 μM): significantly decreased
- expression of c-Myc ([1]; 0.5, 1, 2, and 5 μM): significantly decreased
- expression of β-catenin or LRP6 ([1]; 0.5, 1, 2, and 5 μM): did not significantly alter
- expression of E-cadherin ([1]; 1, 2, or 5 μM): significantly increased
- expression of β-catenin [2]: significantly decreased
- expression of ABCG2 transporter [3]: downregulated
- expression levels of caspase 3 and cleaved caspase 3 ([4]; 2 μM or 5 μM): significantly decreased
- expression levels of caspase 7 and caspase 9 ([4]; 0.5, 1, 2, and 5 μM): did not significantly alter
- expression of Bcl2 ([4]; 0.5, 1, 2, and 5 μM): increased
- expression of Bak ([4]; 0.5, 1, 2, and 5 μM, BT-20 and MDA-MB468): not significantly altered
- PARP cleavage ([4]; 1, 2, and 5 μM): significantly cleaved
- expression of cytochrome c ([4]; 1, 2, and 5 μM): significantly decreased
- expression of Bax ([4]; 1, 2, and 5 μM, BT-20 and MDA-MB468): significantly decreased
- TNF-α ([5]; 0.5, 1, 2, and 5 μM): no significant change
- expression of TNFR1, FADD, and Fas ([5]; 0.5, 1, 2, and 5 μM): significantly inhibited
- TRAIL, its receptor (DRS), RIP3, and TRADD ([5]; 0.5, 1, 2, or 5 μM): significant increase
- migration of TNBC cells [6]: significantly decreased
- cellular shrinkage ([7]; 1 μM and 3 μM): did not induce cellular shrinkage
- rupture of the cellular membrane ([7]; 1 μM and 3 μM): did induce rupture
- nuclear condensation ([7]; 1, 2, and 5 μM, 12 h): did not show nuclear condensation
